Measured values published in patent publication US20260042731A1, “(2,4-DICHLOROPHENOXY)ACETIC ACID ANALOGS” (CORTEVA AGRISCIENCE LLC, priority 2022, published 2026).
Read-outs that look alike come from different tables or passages of the source.

Experiments:
[1] = tested on: glyphosate resistant Conyza canadensis (L.) (ERICA), horseweed; assay: Postemergence herbicide evaluation, growth of Conyza canadensis (ERICA); type: in vivo; conditions: Erigeron canadensis, post-emergence, read-out: Ave. ERICA, percent reduction in plant size relative to the untreated control; for pest or weed control at 280 g/ha: 280 g ae/ha; for pest or weed control at 560 g/ha: 560 g ae/ha
[2] = tested on: Abutilon theophrasti (ABUTH), velvetleaf; assay: Postemergence herbicide evaluation, growth of Abutilon theophrasti (ABUTH); type: in vivo; conditions: for pest or weed control at 280 g/ha / pest or weed control at 560 g/ha: Abutilon theophrasti, post-emergence, read-out: AVE. ABUTH, percent reduction in plant size relative to the untreated control; for pest or weed control at 280 g/ha / AVE. ABUTH, percent reduction in plant size relative to the untreated control: 280 g ae/ha; for pest or weed control at 560 g/ha: 560 g ae/ha
[3] = tested on: Amaranthus rudis (AMATA), tall water hemp; assay: Postemergence herbicide evaluation, growth of Amaranthus rudis (AMATA); type: in vivo; conditions: for pest or weed control at 280 g/ha / pest or weed control at 560 g/ha: Amaranthus tuberculatus, post-emergence, read-out: Ave. AMATA, percent reduction in plant size relative to the untreated control
[4] = tested on: Ambrosia artemisiifolia (AMBEL), common ragweed; assay: Postemergence herbicide evaluation, growth of Ambrosia artemisiifolia (AMBEL); type: in vivo; conditions: Ambrosia artemisiifolia, post-emergence, read-out: AVE. AMBEL, percent reduction in plant size relative to the untreated control; for pest or weed control at 280 g/ha: 280 g ae/ha; for pest or weed control at 560 g/ha: 560 g ae/ha
[5] = tested on: Chenopodium album (CHEAL), common lambsquarters; assay: Postemergence herbicide evaluation, growth of Chenopodium album (CHEAL); type: in vivo; conditions: Chenopodium album, post-emergence, read-out: Ave. CHEAL, percent reduction in plant size relative to the untreated control; for pest or weed control at 280 g/ha: 280 g ae/ha; for pest or weed control at 560 g/ha: 560 g ae/ha
[6] = Volatility of compounds measured by thermogravimetric analysis (TGA); type: physicochemical
[7] = tested on: weeds ABUTH, AMATA, AMBEL, CHEAL, ERICA; assay: Postemergence herbicide evaluation, overall average % weed control (ABUTH, AMATA, AMBEL, CHEAL, ERICA); type: in vivo; conditions: post-emergence, read-out: Overall Ave % Weed Control; for pest or weed control at 280 g/ha: 280 g ae/ha; for pest or weed control at 560 g/ha: 560 g ae/ha

Row | Structure (SMILES) | pest or weed control at 280 g/ha ([1]; 168 h, 7 DAA) [%] | pest or weed control at 560 g/ha ([1]; 168 h, 7 DAA) [%] | pest or weed control at 280 g/ha ([1]; 336 h, 14 DAA) [%] | pest or weed control at 560 g/ha ([1]; 336 h, 14 DAA) [%] | pest or weed control at 280 g/ha ([1]; 504 h, 21 DAA) [%] | pest or weed control at 560 g/ha ([1]; 504 h, 21 DAA) [%] | pest or weed control at 560 g/ha ([2]; 168 h, 7 DAA) [%] | pest or weed control at 560 g/ha ([2]; 336 h, 14 DAA) [%] | pest or weed control at 280 g/ha ([2]; 504 h, 21 DAA) [%] | pest or weed control at 560 g/ha ([2]; 504 h, 21 DAA) [%] | pest or weed control at 280 g/ha ([3]; 168 h, 280 g ae/ha, 7 DAA) [%] | pest or weed control at 280 g/ha ([3]; 336 h, 280 g ae/ha, 14 DAA) [%] | pest or weed control at 560 g/ha ([3]; 336 h, 560 g ae/ha, 14 DAA) [%] | pest or weed control at 560 g/ha ([3]; 504 h, 560 g ae/ha, 21 DAA) [%] | pest or weed control at 280 g/ha ([4]; 168 h, 7 DAA) [%] | pest or weed control at 560 g/ha ([4]; 168 h, 7 DAA) [%] | pest or weed control at 280 g/ha ([4]; 336 h, 14 DAA) [%] | pest or weed control at 560 g/ha ([4]; 336 h, 14 DAA) [%] | pest or weed control at 280 g/ha ([4]; 504 h, 21 DAA) [%] | pest or weed control at 560 g/ha ([4]; 504 h, 21 DAA) [%] | further results
1 | O=C(COc1ccc(Cl)cc1Cl)O/N=C/c1cccnc1 [Compound A29] | 77.5 | 82.5 | 100 | 99 | 99 | 96.5 | 70 | 82.5 | 77.5 | 97.5 | 70 | 90 | 97 | 100 | 77.5 | 77.5 | 75 | 100 | 100 | 100 | pest or weed control at 280 g/ha ([2]; 168 h, 7 DAA): 50%; pest or weed control at 280 g/ha ([2]; 336 h, 14 DAA): 67.5%; pest or weed control at 560 g/ha ([3]; 168 h, 560 g ae/ha, 7 DAA): 91%; pest or weed control at 280 g/ha ([3]; 504 h, 280 g ae/ha, 21 DAA): 72.5%; pest or weed control at 280 g/ha ([5]; 168 h, 7 DAA): 82.5%; pest or weed control at 560 g/ha ([5]; 168 h, 7 DAA): 77.5%; pest or weed control at 280 g/ha ([5]; 336 h, 14 DAA): 96.5%; pest or weed control at 560 g/ha ([5]; 336 h, 14 DAA): 95%; pest or weed control at 280 g/ha ([5]; 504 h, 21 DAA): 91.5%; pest or weed control at 560 g/ha ([5]; 504 h, 21 DAA): 97.5%; TGA Data (rate of weight loss, volatility) [6]: 0.38 µg/min; pest or weed control at 280 g/ha ([7]; 168 h, 7 DAA): 71.5%; pest or weed control at 560 g/ha ([7]; 168 h, 7 DAA): 79.7%; pest or weed control at 280 g/ha ([7]; 336 h, 14 DAA): 85.8%; pest or weed control at 560 g/ha ([7]; 336 h, 14 DAA): 94.7%; pest or weed control at 280 g/ha ([7]; 504 h, 21 DAA): 88.1%; pest or weed control at 560 g/ha ([7]; 504 h, 21 DAA): 98.3%
2 | O=C(COc1ccc(Cl)cc1Cl)Oc1cncnc1 [Compound E14, Pyrimidin-5-yl 2-(2,4-dichlorophenoxy)acetate] | 75 | 85 | 92.5 | 98 | 96 | 99 | 67.5 | 77.5 | 97.5 | 97.5 | 89 | 90 | 97 | 100 | 82.5 | 77.5 | 92.5 | 98.5 | 100 | 99.5 | AVE. ABUTH, percent reduction in plant size relative to the untreated control ([2]; 7 DAA): 65%; AVE. ABUTH, percent reduction in plant size relative to the untreated control ([2]; 14 DAA): 65%; Ave. AMATA, percent reduction in plant size relative to the untreated control ([3]; 280 g ae/ha, 21 DAA): 92.5%; Ave. AMATA, percent reduction in plant size relative to the untreated control ([3]; 560 g ae/ha, 7 DAA): 98.5%; pest or weed control at 280 g/ha ([5]; 168 h, 7 DAA): 80%; pest or weed control at 560 g/ha ([5]; 168 h, 7 DAA): 77.5%; pest or weed control at 280 g/ha ([5]; 336 h, 14 DAA): 90%; pest or weed control at 560 g/ha ([5]; 336 h, 14 DAA): 92.5%; pest or weed control at 280 g/ha ([5]; 504 h, 21 DAA): 95%; pest or weed control at 560 g/ha ([5]; 504 h, 21 DAA): 100%; TGA Data (rate of weight loss, volatility) [6]: 0.0575 µg/min; pest or weed control at 280 g/ha ([7]; 168 h, 7 DAA): 78.3%; pest or weed control at 560 g/ha ([7]; 168 h, 7 DAA): 81.2%; pest or weed control at 280 g/ha ([7]; 336 h, 14 DAA): 86%; pest or weed control at 560 g/ha ([7]; 336 h, 14 DAA): 92.7%; pest or weed control at 280 g/ha ([7]; 504 h, 21 DAA): 96.2%; pest or weed control at 560 g/ha ([7]; 504 h, 21 DAA): 99.2%
